Measurements: patent publication US8071355B2, “Polyhydroxyalkanoate production by coenzyme A-dependent aldehyde dehydrogenase pathways” (Metabolix, Inc., priority 2002, dated 2011)

Tested on: E. coli strain MBX1335
Conditions: for average OD-600 reached: E. coli MBX1335, 10 g/L in medium, cultures allowed to continue to grow; for inhibition of growth rate: E. coli MBX1335, minimal glucose medium, 2, 5 and 10 g/L, triplicate, FIG. 2
Description: MBX1335 was grown overnight in LB medium supplemented with 25 μg/mL chloramphenicol. […] The base medium in these 3-mL cultures contained, per liter: 5 g glucose; 1 mmol MgSO4; 10 mg thiamine; 25.5 mmol Na2HPO4; 33.3 mmol K2HPO4; 27.2 mmol KH2PO4; 2.78 mg FeSO4.7H2O; 1.98 mg MnCl2.4H2O; 2.81 mg CoSO4.7H2O; 0.17 mg CuCl2.2H2O; 1.67 mg CaCl2.2H2O; 0.29 mg ZnSO4.7H2O; 0.1 g casein hydrolysate; and 25 μg chloramphenicol.

| Compound | average OD-600 reached | inhibition of growth rate |
| --- | --- | --- |
| CCC(=O)[O-].[Na+] [propionate, sodium propionate] | 5.0 | propionate inhibits the rate of growth substantially more than 1-propanol |
| 1-propanol | 3.8 | propionate inhibits the rate of growth substantially more than 1-propanol |
